In patent US20250255874A1, “Methods for Treating Immune Thrombocytopenia By Administering (R)-2-[3-[4-Amino-3-(2-Fluoro-4-Phenoxy-Phenyl)Pyrazolo[3,4-D]Pyrimidin-1-YL]Piperidine-1-Carbonyl]-4-Methyl-4-[4-(Oxetan-3-YL)Piperazin-1-YL]Pent-2-Enentrile” (Principia Biopharma Inc., priority 2022, published 2025):
Marks after values point to notes of the source that are not given here.

Tested on: patients with relapsed/refractory immune thrombocytopenia
Experiment: Phase 1/2 study (NCT03395210) Part A, safety;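 also: adverse events graded by NCI CTCAE version 4.0, with worsening of pre-existing conditions counted as adverse events, analysed in the Safety Population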
[1] = 45 patients who initiated 400 bid

SMILES: CC(C)(C=C(C#N)C(=O)N1CCC[C@@H](n2nc(-c3ccc(Oc4ccccc4)cc3F)c3c(N)ncnc32)C1)N1CCN(C2COC2)CC1 [rilzabrutinib, (R)-2-[3-[4-amino-3-(2-fluoro-4-phenoxy-phenyl)pyrazolo[3,4-d]pyrimidin-1-yl]piperidine-1-carbonyl]-4-methyl-4-[4-(oxetan-3-yl)piperazin-1-yl]pent-2-enenitrile]
- patients with ≥1 treatment-related, treatment-emergent adverse event (45 patients who initiated 400 mg bid): 84%
- treatment-related any-grade TEAE: diarrhea [1]: 36%
- treatment-related any-grade TEAE: fatigue [1]: 9%
- treatment-related any-grade TEAE: nausea [1]: 31%
- patients with ≥1 treatment-related, treatment-emergent adverse event (60 patients who initiated rilzabrutinib at all doses): 52%
- All related TEAEs, Treatment-Related TEAEs, Grade 1 (N = 45 initiated 400 mg bid): 23 (51) number of patients (percent)
- All related TEAEs, Treatment-Related TEAEs, Grade 2 (N = 45 initiated 400 mg bid): 15 (33) number of patients (percent)
- Diarrhea, Treatment-Related TEAEs, Grade 1 (N = 45 initiated 400 mg bid): 13 (29) number of patients (percent)
- Diarrhea, Treatment-Related TEAEs, Grade 2 (N = 45 initiated 400 mg bid): 3 (7) number of patients (percent)
- Fatigue, Treatment-Related TEAEs, Grade 1 (N = 45 initiated 400 mg bid): 3 (7) number of patients (percent)
- Fatigue, Treatment-Related TEAEs, Grade 2 (N = 45 initiated 400 mg bid): 1 (2) number of patients (percent)
- Nausea, Treatment-Related TEAEs, Grade 1 (N = 45 initiated 400 mg bid): 12 (27) number of patients (percent)
- Nausea, Treatment-Related TEAEs, Grade 2 (N = 45 initiated 400 mg bid): 2 (4) number of patients (percent)
- Vomiting, Treatment-Related TEAEs, Grade 1 (N = 45 initiated 400 mg bid): 2 (4) number of patients (percent)
- Vomiting, Treatment-Related TEAEs, Grade 2 (N = 45 initiated 400 mg bid): 1 (2) number of patients (percent)
- Abdominal discomfort, TEAEs Due to Any Cause, Any grade (Safety Population, N = 60): 1 (2) number of patients (percent)
- Abdominal discomfort, TEAEs Due to Any Cause, Grade 1 (Safety Population, N = 60): 1 (2) number of patients (percent)
- Abdominal discomfort, Treatment-Related TEAEs, Any grade (Safety Population, N = 60): 1 (2) number of patients (percent)
- Abdominal discomfort, Treatment-Related TEAEs, Grade 1 (Safety Population, N = 60): 1 (2) number of patients (percent)
- Abdominal distension, TEAEs Due to Any Cause, Any grade (Safety Population, N = 60): 6 (10) number of patients (percent)
- Abdominal distension, TEAEs Due to Any Cause, Grade 1 (Safety Population, N = 60): 6 (10) number of patients (percent)
- Abdominal distension, Treatment-Related TEAEs, Any grade (Safety Population, N = 60): 4 (7) number of patients (percent)
- Abdominal distension, Treatment-Related TEAEs, Grade 1 (Safety Population, N = 60): 4 (7) number of patients (percent)
- Abdominal pain, TEAEs Due to Any Cause, Any grade (Safety Population, N = 60): 3 (5) number of patients (percent)
- Abdominal pain, TEAEs Due to Any Cause, Grade 1 (Safety Population, N = 60): 1 (2) number of patients (percent)
- Abdominal pain, TEAEs Due to Any Cause, Grade 2 (Safety Population, N = 60): 2 (3) number of patients (percent)
- Abdominal pain, Treatment-Related TEAEs, Any grade (Safety Population, N = 60): 2 (3) number of patients (percent)
- Abdominal pain, Treatment-Related TEAEs, Grade 2 (Safety Population, N = 60): 2 (3) number of patients (percent)
- Abnormal dreams, TEAEs Due to Any Cause, Any grade (Safety Population, N = 60): 1 (2) number of patients (percent)
- Abnormal dreams, TEAEs Due to Any Cause, Grade 1 (Safety Population, N = 60): 1 (2) number of patients (percent)
- Abnormal dreams, Treatment-Related TEAEs, Any grade (Safety Population, N = 60): 1 (2) number of patients (percent)
- Abnormal dreams, Treatment-Related TEAEs, Grade 1 (Safety Population, N = 60): 1 (2) number of patients (percent)
- Akathisia, TEAEs Due to Any Cause, Any grade (Safety Population, N = 60): 1 (2) number of patients (percent)
- Akathisia, TEAEs Due to Any Cause, Grade 1 (Safety Population, N = 60): 1 (2) number of patients (percent)
- Akathisia, Treatment-Related TEAEs, Any grade (Safety Population, N = 60): 1 (2) number of patients (percent)
- Akathisia, Treatment-Related TEAEs, Grade 1 (Safety Population, N = 60): 1 (2) number of patients (percent)
- Alopecia, TEAEs Due to Any Cause, Any grade (Safety Population, N = 60): 2 (3) number of patients (percent)
- Alopecia, TEAEs Due to Any Cause, Grade 1 (Safety Population, N = 60): 2 (3) number of patients (percent)
- Anemia, TEAEs Due to Any Cause, Any grade (Safety Population, N = 60): 4 (7) number of patients (percent)
- Anemia, TEAEs Due to Any Cause, Grade 2 (Safety Population, N = 60): 2 (3) number of patients (percent)
- Anemia, TEAEs Due to Any Cause, Grade 3/4 (Safety Population, N = 60): 2 (3) number of patients (percent)
- Any TEAE, TEAEs Due to Any Cause, Any grade (Safety Population, N = 60): 48 (80) number of patients (percent)
- Any TEAE, TEAEs Due to Any Cause, Grade 1 (Safety Population, N = 60): 43 (72) number of patients (percent)
- Any TEAE, TEAEs Due to Any Cause, Grade 2 (Safety Population, N = 60): 30 (50) number of patients (percent)
- Any TEAE, TEAEs Due to Any Cause, Grade 3/4 (Safety Population, N = 60): 8 (13)^† number of patients (percent)
- Any TEAE, Treatment-Related TEAEs, Any grade (Safety Population, N = 60): 31 (52) number of patients (percent)
- Any TEAE, Treatment-Related TEAEs, Grade 1 (Safety Population, N = 60): 27 (45) number of patients (percent)
- Any TEAE, Treatment-Related TEAEs, Grade 2 (Safety Population, N = 60): 15 (25) number of patients (percent)
- Arthralgia, TEAEs Due to Any Cause, Any grade (Safety Population, N = 60): 5 (8) number of patients (percent)
- Arthralgia, TEAEs Due to Any Cause, Grade 1 (Safety Population, N = 60): 3 (5) number of patients (percent)
- Arthralgia, TEAEs Due to Any Cause, Grade 2 (Safety Population, N = 60): 2 (3) number of patients (percent)
- Arthropod bite, TEAEs Due to Any Cause, Any grade (Safety Population, N = 60): 3 (5) number of patients (percent)
- Arthropod bite, TEAEs Due to Any Cause, Grade 1 (Safety Population, N = 60): 3 (5) number of patients (percent)
- Back pain, TEAEs Due to Any Cause, Any grade (Safety Population, N = 60): 8 (13) number of patients (percent)
- Back pain, TEAEs Due to Any Cause, Grade 1 (Safety Population, N = 60): 7 (12) number of patients (percent)
